Counter-ions that a name gives are not always drawn. Like-named read-outs stand apart in the source and are kept apart here.
How the values were obtained:
[1] = tested on: capillary-to-arteriole electrical signaling; assay: Ex vivo CaPA preparation from transgenic mice: arteriolar tone and dilation to capillary 10 mM K+; conditions: for Arteriolar dilation in response to capillary stimulation with 10 mM K+: 1 mM 4-AP, 30 ng/mL HB-EGF bath, or exogenous PIP2 bath; for Myogenic tone of arteriolar segment: 1 mM 4-AP or 30 ng/mL HB-EGF
Kir2.1 channel [2] = biological target: T1, Kir2.1 channel (Mus musculus, UniProt P35561); assay: Patch-clamp recording of Kir2.1 currents in freshly isolated brain capillary endothelial cells (cECs); conditions: for Effect of simultaneous PKC and IP3R/Ca2+ block on PGE2-mediated suppression of Kir2.1 currents: 1 μM Gö6976 + 30 μM CPA bath-applied + 5.4 mM BAPTA dialyzed together; for Effect of simultaneous PKC and IP3R/Ca2+ block on PGE2-mediated suppression of Kir2.1 currents / Effect on PGE2-induced reduction of Kir2.1 current: PGE2 2 μM, 0 mM Mg-ATP; for Effect on PGE2-induced reduction of Kir2.1 current: diC8-PIP2 10 μM dialyzed, U73122 10 μM bath, Gö6976 1 μM bath, BAPTA 5.4 mM dialyzed; for Decline of Kir2.1 currents over 15 min: in pipette: 1 mM Mg-ATP, 1 mM Mg-ATP-γ-S, or 10 μM diC8-PIP2 with 0 mM Mg-ATP
T1 sequence (P35561 1-428): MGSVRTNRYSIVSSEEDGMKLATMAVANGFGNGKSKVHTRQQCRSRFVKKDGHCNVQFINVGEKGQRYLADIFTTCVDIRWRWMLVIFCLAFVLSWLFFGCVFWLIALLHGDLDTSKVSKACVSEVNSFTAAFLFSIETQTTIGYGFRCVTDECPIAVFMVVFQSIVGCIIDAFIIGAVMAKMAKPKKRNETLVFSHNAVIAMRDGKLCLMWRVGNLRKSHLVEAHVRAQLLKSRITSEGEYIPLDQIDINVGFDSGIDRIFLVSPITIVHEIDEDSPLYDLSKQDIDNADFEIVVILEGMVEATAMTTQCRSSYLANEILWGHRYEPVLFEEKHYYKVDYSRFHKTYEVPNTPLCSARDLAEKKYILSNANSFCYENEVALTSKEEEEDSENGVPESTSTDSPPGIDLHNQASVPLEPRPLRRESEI

functional hyperemia = assay: Whisker stimulation-induced functional hyperemia in vivo (laser Doppler flowmetry, somatosensory cortex); design: species or system TgNotch3^WT and TgNotch3^R169C mice; conditions: for CBF responses to whisker stimulation: 20 nM HB-EGF perfused over cranial window
[3] = tested on: K+-evoked capillary hyperemia; assay: In vivo two-photon imaging of K+-evoked capillary RBC flux through cranial window; design: species or system C57BL/6J mouse; conditions: 0-mM Ca2+ solution containing 200 μM diltiazem on cranial surface, end of experiment
Kir2.1 channel [4] = biological target: T1, Kir2.1 channel; assay: Patch-clamp Ba2+-sensitive Kir2.1 current in cECs from transgenic mice; type: cell-based, TgNotch3^WT and TgNotch3^R169C mice; design: freshly isolated capillary endothelial cells from TgNotch3^WT and TgNotch3^R169C brains; endogenous in cells; host or cells: freshly isolated brain capillary endothelial cells from TgNotch3^WT and TgNotch3^R169C mice (FVB/N background); conditions: HB-EGF (30 ng/ml, 20 minutes)
[5] = cECs dialyzed with 1 mM Mg-ATP, PKC, PKG, PKA inhibitors
[6] = dialyzed cECs, 1 mM Mg-ATP, 1 μM Gö6976, 10 μM Rp-8-Br-PET-cGMPS, 1 μM H-89
[7] = conventional whole-cell, dialyzed cECs

## Nc1ccncc1 [4-aminopyridine]
[1]; TgNotch3^R169C CaPA
  Arteriolar dilation in response to capillary stimulation with 10 mM K+: did not restore arteriolar dilation
[1]; TgNotch3^R169C
  Myogenic tone of arteriolar segment: restores myogenic tone

## CC(C)Oc1ccc2c(=O)c3cc(C(=O)O)ccc3oc2c1 [AH6809]
Kir2.1 channel [2]
  Effect on inhibitory effect of PGE2 on Kir2.1 currents: prevented

## O=C(O)CN(CC(=O)O)c1ccccc1OCCOc1ccccc1N(CC(=O)O)CC(=O)O [BAPTA, 1,2-bis(2-aminophenoxy)ethane-N,N,N′,N′-tetraacetic acid]
Kir2.1 channel [2]
  Effect of simultaneous PKC and IP3R/Ca2+ block on PGE2-mediated suppression of Kir2.1 currents: lack of an effect
Kir2.1 channel [2]; dialyzed cECs
  Effect on PGE2-induced reduction of Kir2.1 current: no effect

## [Ba+2] [Ba^2+]
Kir2.1 channel [2]
  Inwardly rectifying Kir2.1 currents, block: abolished
Functional hyperemia; 100 μM Ba2+, TgNotch3^R169C mice
  Effect on CBF responses to whisker stimulation: had no effect
Functional hyperemia; 100 μM Ba2+, TgNotch3^WT mice
  Decrease of functional hyperemia: 60%
Functional hyperemia; Ba2+ in presence of HB-EGF, CADASIL mice
  HB-EGF-mediated increase in functional hyperemia: inhibited
[1]; Ba2+, TgNotch3^R169C, Timp3^+/- mice
  K+-induced upstream vasodilation: completely abolished

## Cn1c2ccccc2c2c3c(c4c5ccccc5n(CCC#N)c4c21)CNC3=O [Gö6976, 12-(2-cyanoethyl)-6,7,12,13-tetrahydro-13-methyl-5-oxo-5H-indolo(2,3-a)pyrrolo(3,4-c)-carbazole]
Kir2.1 channel [2]
  Effect of simultaneous PKC and IP3R/Ca2+ block on PGE2-mediated suppression of Kir2.1 currents: lack of an effect
Kir2.1 channel [2]; [5]
  Effect on peak Kir2.1 current densities at -140 mV: absence of an effect
Kir2.1 channel [2]; dialyzed cECs
  Effect on PGE2-induced reduction of Kir2.1 current: no effect
Kir2.1 channel [2]; [6]
  Effect on Mg-ATP-mediated maintenance of Kir2.1 currents over 15 min: unaltered

## Cl.Cl.O=S(=O)(NCCNC/C=C/c1ccc(Br)cc1)c1cccc2cnccc12 [H-89 dihydrochloride]
Kir2.1 channel [2]; [5]
  Effect on peak Kir2.1 current densities at -140 mV: absence of an effect
Kir2.1 channel [2]; [6]
  Effect on Mg-ATP-mediated maintenance of Kir2.1 currents over 15 min: unaltered

## Nc1ncnc2c1ncn2[C@@H]1O[C@H](COP(=O)(O)OP(=O)(O)OP(O)(O)=S)[C@@H](O)[C@H]1O [Mg-ATP-γ-S]
Kir2.1 channel [2]; [7]
  Decline of Kir2.1 currents over 15 min: failed to avert current decay

## Nc1nc2c(ncn2[C@@H]2O[C@H](COP(=O)(O)OP(=O)(O)OP(=O)(O)O)[C@@H](O)[C@H]2O)c(=O)[nH]1 [Na-GTP]
Kir2.1 channel [2]; 100 μM Na-GTP in pipette alone or with 1 mM Mg-ATP
  Effect on peak Kir2.1 current amplitude or kinetics of current decline: in neither setting did Na-GTP have an effect

## O=c1c2nc(Br)n([C@@H]3O[C@@H]4CO[P@@](O)(=S)O[C@H]4[C@H]3O)c2nc2[nH]c(-c3ccccc3)cn12 [Rp-8-Br-PET-cGMPS]
Kir2.1 channel [2]
  Effect on Mg-ATP-mediated maintenance of Kir2.1 currents over 15 min: unaltered
  Effect on peak Kir2.1 current densities at -140 mV: absence of an effect

## NC(=O)c1nc(Nc2ccccc2)sc1NC(=O)C1CCCCC1 [UNC3230, 5-[(Cyclohexylcarbonyl)amino]-2-(phenylamino)-thiazolecarboxamide]
Kir2.1 channel [2]; perforated-patch (intact cytoplasm), PIK93 300 nM, phenylarsine oxide 10 μM, UNC3230 100 nM, bath-applied
  Kir2.1 currents 15 min after PIP2 synthesis inhibitor: yielded similar results

## CCCCCCCC(=O)OCC(COP(=O)(O)OC1C(O)C(O)C(OP(=O)(O)O)C(OP(=O)(O)O)C1O)OC(=O)CCCCCCC (stereo not drawn) [diC8-PIP2, 1,2-Dioctanoyl phosphatidylinositol 4,5-bisphosphate sodium salt]
Kir2.1 channel [2]; conventional whole-cell, 0 mM Mg-ATP + 10 μM diC8-PIP2 in pipette
  Initial Kir2.1 currents (at t0): did not elevate initial Kir2.1 currents
Kir2.1 channel [2]; [7]
  Decline of Kir2.1 currents over 15 min: largely abrogated the decline in Kir2.1 currents
Kir2.1 channel [2]; dialyzed cECs
  Effect on PGE2-induced reduction of Kir2.1 current: completely abrogated

## COc1ccc([C@@H]2Sc3ccccc3N(CCN(C)C)C(=O)[C@@H]2OC(C)=O)cc1 [diltiazem]
[3]
  Arteriolar diameter and capillary RBC flux (maximal response): dramatically dilated arterioles and enhanced capillary RBC flux

## HB-EGF: heparin-binding epidermal growth factor-like growth factor, EGFR ligand
Functional hyperemia; CADASIL model (TgNotch3^R169C)
  CBF responses to whisker stimulation: restored CBF responses to whisker stimulation in CADASIL model to control levels
Functional hyperemia; control mice (TgNotch3^WT)
  CBF responses to whisker stimulation: no significant effect
Kir2.1 channel [4]; TgNotch3^R169C cECs
  Kir2.1 current density: restored it
Kir2.1 channel [4]; TgNotch3^WT cECs
  Kir2.1 current density: had no effect
[1]; CaPA from endothelial specific Kir2.1^-/- (Kir channel deficient) mice, HB-EGF or soluble PIP2 present
  Upstream arteriole response to 10 mM K+ on capillaries: without effect
[1]; HB-EGF 30 ng/mL, TgNotch3^R169C CaPA
  Time after restoration of myogenic tone until dilation to capillary K+ appeared: 17 ± 0.5 min
[1]; TgNotch3^R169C CaPA
  Arteriolar dilation in response to capillary stimulation with 10 mM K+: gradually increased to the amplitude observed in preparations from the control group
[1]; TgNotch3^R169C
  Myogenic tone of arteriolar segment: also restored myogenic tone
[1]; bath HB-EGF 30 ng/mL, TgNotch3^R169C CaPA
  Arteriolar segment diameter: rapid and sustained constriction

## SLIGRL-NH2
Kir2.1 channel [2]; perforated patch, 15 min, SLIGRL-NH2 5 μM
  Effect on capillary Kir2.1 currents: had no effect

B1: TIMP3: recombinant soluble TIMP3, matrix metalloproteinase inhibitor (protein, UniProt P35625 24-211, looked up)
Metalloproteinase inhibitor 3: CTCSPSHPQDAFCNSDIVIRAKVVGKKLVKEGPFGTLVYTIKQMKMYRGFTKMPHVQYIHTEASESLCGLKLEVNKYQYLLTGRVYDGKMYTGLCNFVERWDQLTLSQRKGLNYRYHLGCNCKIKSCYYLPCFVTSKNECLWTDMLSNFGYPGYQSKHYACIRQKGGYCSWYRGWAPPDKSIINATDP
[1]; TgNotch3^WT CaPA, bath 8 nM soluble recombinant TIMP3
  Arteriolar vasodilation induced by capillary stimulation with 10 mM K+: gradually attenuated and, ultimately, abolished

From patent US20220168325A1, “METHODS TO PROMOTE CEREBRAL BLOOD FLOW IN THE BRAIN” (THE UNIVERSITY OF VERMONT, priority 2019, published 2022)
